Tests used:
Assay type in all cases: in vivo
corn = assay: Phytotoxicity test for field crops (soil treatment test); set-up: key: 0 (no harm); 9 (complete withered)
Method in brief: (§1)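 Crops sown in sterilized horticultural soil (pH 6.1, organic material 1.0%) with mixed fertilizer (N:P:K=17:21:17); one day after sowing, soil sprayed with compound in 33% acetone/0.1% Tween-20 at 19˜300 g a.i./ha. Greenhouse at 30±5° C, 14/10 h light/dark; injury scored visually 0–9 versus untreated control at 10 and 20 days.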

soybean = assay: as above; set-up: key: 0 (no harm); 9 (complete withered)
Method in brief: as §1

rice = assay: as above; set-up: key: 0 (no harm); 9 (complete withered)
Method in brief: as §1

wheat = assay: as above; set-up: key: 0 (no harm); 9 (complete withered)
Method in brief: as §1

cotton = assay: as above; set-up: key: 0 (no harm); 9 (complete withered)
Method in brief: as §1

black nightshade = assay: Herbicidal activity test against upland field weeds (foliar treatment test); set-up: key to Foliar treatment herbicidal activity, black nightshade: 0 (no control); 100 (complete control); conditions: 50 g ai/ha, scale 0-100
Method in brief: (§2)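 Visual 0–100 control ratings relative to untreated plants, taken 14 (or 21) days after spraying foliage at 50 or 75 g a.i./ha. Spray solution: 50% acetone with 0.1% Tween-20; plants kept in greenhouse at 30±5 °C, 14 h light/10 h dark.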

sorghum = assay: Herbicidal activity test against upland field weeds (soil treatment test); set-up: key to Soil treatment herbicidal activity, Sorghum: 0 (no control); 100 (complete control); conditions: 50 g ai/ha, scale 0 (no control) to 100 (complete control)
Method in brief: (§3)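 Weed control scored visually on a 0 (none) to 100 (complete) scale versus untreated pots at 14 or 21 days in greenhouse (30±5 °C, 14 h light). Test compounds, 50 or 75 g a.i./ha in 50% acetone/0.1% Tween-20, hand-sprayed onto soil one day post-sowing.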

crabgrass = assay: Herbicidal activity test against upland field weeds (foliar treatment test); conditions: Digitaria sanguinalis, 50 g ai/ha, scale 0-100
Method in brief: as §2

cocklebur = assay: Herbicidal activity test against upland field weeds (soil treatment test); set-up: key to Soil treatment herbicidal activity, Cocklebur: 0 (no control); 100 (complete control); conditions: 50 g ai/ha, scale 0 (no control) to 100 (complete control)
Method in brief: as §3

barnyard grass = assay: Herbicidal activity test against upland field weeds (foliar treatment test); conditions: Echinochloa crus-galli, 50 g ai/ha, scale 0-100
Method in brief: as §2

indian jointvetch = assay: as above; conditions: 50 g ai/ha, scale 0-100
Method in brief: as §2

fall panicum [1] = assay: Herbicidal activity test against upland field weeds (soil treatment test); set-up: key to Soil treatment herbicidal activity, Fall panicum: 0 (no control); 100 (complete control); conditions: 50 g ai/ha, scale 0 (no control) to 100 (complete control)
Method in brief: as §3

bindweed = assay: Herbicidal activity test against upland field weeds (foliar treatment test); conditions: 50 g ai/ha, scale 0-100
Method in brief: as §2

fall panicum [2] = assay: as above; conditions: Panicum dichotomiflorum, 50 g ai/ha, scale 0-100
Method in brief: as §2

[3] = 50 g ai/ha, Corn (10 days after treatment)
[4] = 50 g ai/ha, Corn (20 days after treatment)
[5] = 100 g ai/ha, Corn (10 days after treatment)
[6] = 100 g ai/ha, Corn (20 days after treatment)
[7] = 50 g ai/ha, Soybean (10 days after treatment)
[8] = 100 g ai/ha, Soybean (10 days after treatment)
[9] = 100 g ai/ha, Soybean (20 days after treatment)
[10] = 50 g ai/ha, Rice (10 days after treatment)
[11] = 50 g ai/ha, Rice (20 days after treatment)
[12] = 100 g ai/ha, Rice (10 days after treatment)
[13] = 100 g ai/ha, Rice (20 days after treatment)
[14] = 50 g ai/ha, Wheat (10 days after treatment)
[15] = 50 g ai/ha, Wheat (20 days after treatment)
[16] = 100 g ai/ha, Wheat (10 days after treatment)
[17] = 100 g ai/ha, Wheat (20 days after treatment)
[18] = 50 g ai/ha, Cotton (10 days after treatment)
[19] = 50 g ai/ha, Cotton (20 days after treatment)
[20] = 100 g ai/ha, Cotton (10 days after treatment)
[21] = 100 g ai/ha, Cotton (20 days after treatment)

SMILES | Soil treatment phytotoxicity, Corn (corn; [3]) | Soil treatment phytotoxicity, Corn (corn; [4]) | Soil treatment phytotoxicity, Corn (corn; [5]) | Soil treatment phytotoxicity, Corn (corn; [6]) | Soil treatment phytotoxicity, Soybean (soybean; [7]) | Soil treatment phytotoxicity, Soybean (soybean; [8]) | Soil treatment phytotoxicity, Soybean (soybean; [9]) | Soil treatment phytotoxicity, Rice (rice; [10]) | Soil treatment phytotoxicity, Rice (rice; [11]) | Soil treatment phytotoxicity, Rice (rice; [12]) | Soil treatment phytotoxicity, Rice (rice; [13]) | Soil treatment phytotoxicity, Wheat (wheat; [14]) | Soil treatment phytotoxicity, Wheat (wheat; [15]) | Soil treatment phytotoxicity, Wheat (wheat; [16]) | Soil treatment phytotoxicity, Wheat (wheat; [17]) | Soil treatment phytotoxicity, Cotton (cotton; [18]) | Soil treatment phytotoxicity, Cotton (cotton; [19]) | Soil treatment phytotoxicity, Cotton (cotton; [20]) | Soil treatment phytotoxicity, Cotton (cotton; [21]) | Foliar treatment herbicidal activity, black nightshade (black nightshade) | further results
Cn1nnnc1COc1nc(C(F)(F)F)ccc1C(=S)Nc1nnnn1C [Compound No. 1-43, N-(1-methyl-1H-tetrazol-5-yl)-2-((1-methyl-1H-tetrazol-5-yl)methoxy)-6-(trifluoromethyl)pyridin-3-carbothioamide] | 0 | 0 | 1 | 0 | 0 | 0 | 0 | 5 | 5 | 7 | 9 | 0 | 0 | 3 | 3 | 0 | 1 | 1 | 2 | 100 | Soil treatment phytotoxicity, Soybean (soybean; 50 g ai/ha, Soybean (20 days after treatment)): 0; Soil treatment herbicidal activity, Sorghum (sorghum): 0; pest or weed control at 50 g/ha (crabgrass): 95%; Soil treatment herbicidal activity, Cocklebur (cocklebur): 0; pest or weed control at 50 g/ha (barnyard grass): 95%; pest or weed control at 50 g/ha (indian jointvetch): 30%; Soil treatment herbicidal activity, Fall panicum (fall panicum [1]): 0; pest or weed control at 50 g/ha (bindweed): 70%; pest or weed control at 50 g/ha (fall panicum [2]): 95%
Cn1nnnc1NC(=O)c1ccc(C(F)(F)F)nc1OCc1nnnn1C(F)F [Compound No. 1-26, 2-((1-(difluoromethyl)-1H-tetrazol-5-yl)methoxy)-N-(1-methyl-1H-tetrazol-5-yl)-6-(trifluoromethyl)nicotinamide] | 0 | 0 | 1 | 1 | 0 | 0 | 4 | 1 | 8 | 3 | 9 | 0 | 0 | 0 | 0 | 1 | 0 | 1 | 1 | 100 | plant injury at 50 g/ha (sorghum; Sorghum): 30%; pest or weed control at 50 g/ha (crabgrass): 98%; Soil treatment herbicidal activity, Cocklebur (cocklebur): 0; pest or weed control at 50 g/ha (barnyard grass): 95%; pest or weed control at 50 g/ha (indian jointvetch): 70%; pest or weed control at 50 g/ha (fall panicum [1]; Panicum dichotomiflorum): 60%; pest or weed control at 50 g/ha (bindweed): 60%; pest or weed control at 50 g/ha (fall panicum [2]): 98%
